Among the data in US20160359116A1, “Organic Semiconductor Formulations” (SMARTKEM LIMITED, priority 2012, published 2016) are Solubility values, retold here.

This data set is described as follows: Solubility of the OSC small molecule and binder in aromatic hydrocarbon and further solvents. It counts as physicochemical. From the text:
The aromatic hydrocarbon solvent of the multi-solvent formulation is capable of dissolving at least 0.5% by weight of the polycrystalline small molecule of the present invention, more preferably greater than 1%.
The further (subsidiary) solvent(s) are preferably less solubilising of the polycrystalline small molecule and typically dissolve less than 0.2% by weight of the small molecule OSC, more preferably less than 0.1% by weight, more preferably less than 0.05% by weight.
Preferably, the semiconducting binder of the invention is essentially insoluble in the further solvent.

For the compound `CC[Si](C#Cc1c2cc3c(C)ccc(C)c3cc2c(C#C[Si](CC)(CC)CC)c2cc3c(C)ccc(C)c3cc12)(CC)CC` [1,4,8,11-tetramethyl, 6,13-bis-(triethylsilylethynyl)pentacene], the Solubility by setting is: (in 2-Bromomesitylene) 1.4% w/v; (in Bromobenzene) 3.5% w/v; (in Cyclohexane) less than 0.1%; (in Mesitylene) roughly 1% w/v; (in Methyl ethyl ketone (MEK)) “Insol”; (in Propan-2-ol) “Insol”. For the same compound, the Solubility is reported as 0.6% w/v (in Tetralin), less than 0.1% (in n-Heptane) and less than 0.1% (in n-Octane).
